Measured values published in patent US9187486B2 (AMGEN INC., priority 2011, dated 2015).

Key:
[1] = target: Pim-1 (Homo sapiens (Human), UniProt P11309); assay: Pim-Mn enzyme assay (HTRF, 384-well), Pim-1; type: biochemical; details: Pim-1 enzyme 5 pM, ATP […], read-out: Pim-1-Mn IC50 IP
Source text: (§1) Full-length human cDNAs encoding Pim-1 (MGC ID 3913552) or Pim-2 (IMAGE ID 5092935) were purchased from Invitrogen, Carlsbad, Calif. These cDNAs were used as templates in PCR reactions to produce full-length DNA clones of the PIMs. Oligonucleotide PCR primers for Pim-1 were 5′-[…]-3′ and 5′-[…]-3′. Oligonucleotide PCR primers for Pim-2 were 5′-[…]-3′ and 5′-[…]-3′. PCR products were digested with BclI and EcoRI for Pim-1 and BamHI and EcoRI for Pim-2 and ligated into a modified baculovirus transfer vector (pFastBac 1) cleaved with BamHI and EcoRI. […]
(§2) The frozen cell pellets were thawed by stirring in chilled lysis buffer (0.05 M HEPES, pH 8.0, 0.25 M NaCl, 0.01 M 2-mercaptoethanol, 10% (w/v) glycerol, 0.5% (v/v) protease inhibitor cocktail (Sigma P-8340) at a ratio of 1 L/200 g cells until homogeneous. The thawed suspension was applied to a microfluidizer at 10,000 PSI to disrupt the cells and the whole lysates were clarified by centrifugation at 50,000×g for 90 min, 4° C. Imidazole was added to the clarified lysate to a final concentration of 2.5 mM and the lysate was mixed with 10 mL of Talon resin (Clontech) and the slurry rocked gently overnight at 4° C. […] Fractions were analyzed by SDS-PAGE and those containing the protein of interest were pooled and concentrated. […] The protein eluted at a retention time indicative of it being monomeric and fractions were analyzed by SDS-PAGE. […]

[2] = target: Pim-2 (Homo sapiens (Human), UniProt Q9P1W9); assay: Pim-Mn enzyme assay (HTRF, 384-well), Pim-2; type: biochemical; details: Pim-2 enzyme 0.5 pM, ATP […], read-out: Pim-2-Mn IC50 IP
Source text: as §1, §2

Chain of Pim-2 (Q9P1W9 whole entry): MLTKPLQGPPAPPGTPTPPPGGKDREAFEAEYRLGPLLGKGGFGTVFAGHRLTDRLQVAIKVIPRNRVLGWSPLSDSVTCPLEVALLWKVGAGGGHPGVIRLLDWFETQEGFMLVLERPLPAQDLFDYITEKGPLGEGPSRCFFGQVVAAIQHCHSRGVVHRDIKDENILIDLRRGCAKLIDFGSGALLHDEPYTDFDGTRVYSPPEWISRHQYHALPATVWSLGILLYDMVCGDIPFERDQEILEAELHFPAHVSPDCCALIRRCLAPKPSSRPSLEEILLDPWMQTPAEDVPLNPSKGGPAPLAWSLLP
Chain of Pim-1 (P11309 whole entry): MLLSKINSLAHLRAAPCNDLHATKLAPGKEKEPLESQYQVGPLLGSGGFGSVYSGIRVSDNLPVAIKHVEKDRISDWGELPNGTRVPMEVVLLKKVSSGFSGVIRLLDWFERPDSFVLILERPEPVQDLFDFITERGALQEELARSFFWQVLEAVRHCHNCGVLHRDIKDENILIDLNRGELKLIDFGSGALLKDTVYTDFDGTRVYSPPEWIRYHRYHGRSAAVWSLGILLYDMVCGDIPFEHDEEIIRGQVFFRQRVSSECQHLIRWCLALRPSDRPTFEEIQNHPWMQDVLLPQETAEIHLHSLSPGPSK

| Structure (SMILES) | IC50 [1] [nM] | IC50 [2] [nM] |
| --- | --- | --- |
| Fc1cccc(F)c1-c1ccc2cnc(Nc3cnccc3C3=CCNCC3)n2n1 [Example 105, 2-(2,6-Difluorophenyl)-N-(1′,2′,3′,6′-tetrahydro-[4,4′-bipyridin]-3-yl)imidazo[1,5-b]pyridazin-7-amine bis(2,2,2-trifluoroacetate)] | 35 | 1050 |
| Cc1noc(C)c1-c1ccncc1Nc1ncc2ccc(-c3c(F)cccc3F)nn12 [Example 106, 2-(2,6-Difluorophenyl)-N-(4-(3,5-dimethylisoxazol-4-yl)pyridin-3-yl)imidazo[1,5-b]pyridazin-7-amine bis(2,2,2-trifluoroacetate)] | 221 | > 5000 |
